#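 Grown in 96-well plates, cells were treated for 48 hours with each compound at five concentrations. Insufficient inhibition: endpoint recorded as highest concentration tested. At the GI50, growth is halved.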 Active and inactive are the calls of the source. Cut-off read from the data, not from the text of the source: active = GI50 up to about 1.1 µM and inactive = higher.
# Key:
# Test in all cases: NCI anticancer screen, dose series, 48 h
# [1] = tested on: A549
# [2] = tested on: CCRF-CEM
# [3] = tested on: EKVX
# [4] = tested on: HCC 2998
# [5] = tested on: HOP-62
# [6] = tested on: M14
# [7] = tested on: Malme-3M
# [8] = tested on: NCI-H23
# [9] = tested on: NCI-H522
# [10] = tested on: OVCAR-3
# [11] = tested on: SF-268
# [12] = tested on: SF-295
# [13] = tested on: SK-MEL-28
# [14] = tested on: SK-MEL-2
# [15] = tested on: SW-620
# [16] = tested on: UO-31
# [17] = tested on: SR
# [18] = tested on: SK-OV-3
Structure (SMILES),GI50 [1],GI50 [2],GI50 [3],GI50 [4],GI50 [5],GI50 [6],GI50 [7],GI50 [8],GI50 [9],GI50 [10],GI50 [11],GI50 [12],GI50 [13],GI50 [14],GI50 [15],GI50 [16],GI50 [17],GI50 [18]
O=C1c2ccccc2-c2cccc3ccc(Cc4ccc5ccccc5c4)c1c23,> 100 µM (inactive),> 100 µM (inactive),> 100 µM (inactive),> 100 µM (inactive),> 100 µM (inactive),> 100 µM (inactive),> 100 µM (inactive),> 100 µM (inactive),15.6 µM (inactive),> 100 µM (inactive),> 100 µM (inactive),> 100 µM (inactive),> 100 µM (inactive),> 100 µM (inactive),> 100 µM (inactive),> 100 µM (inactive),,
CCn1cnnc1-c1nsc2ccccc12,> 100 µM (inactive),> 100 µM (inactive),26.9 µM (inactive),> 100 µM (inactive),> 100 µM (inactive),> 100 µM (inactive),,> 100 µM (inactive),,65.9 µM (inactive),> 100 µM (inactive),,> 100 µM (inactive),> 100 µM (inactive),> 100 µM (inactive),> 100 µM (inactive),> 100 µM (inactive),
S=P1(Oc2ccccc2)NNP2(=NP(N3CC3)(N3CC3)=NP(N3CC3)(N3CC3)=N2)NN1 (stereo unspecified),> 100 µM (inactive),38.9 µM (inactive),> 100 µM (inactive),> 100 µM (inactive),49.4 µM (inactive),,> 100 µM (inactive),41.9 µM (inactive),> 100 µM (inactive),> 100 µM (inactive),78.3 µM (inactive),> 10 µM (inactive),> 100 µM (inactive),> 100 µM (inactive),> 100 µM (inactive),> 100 µM (inactive),,> 100 µM (inactive)
Cc1ccc(N2C(=O)N(c3ccc(C)cc3)C3(SC=NN3C)C2=O)cc1 (stereo unspecified),50.5 µM (inactive),40.6 µM (inactive),> 100 µM (inactive),98.9 µM (inactive),> 100 µM (inactive),69.8 µM (inactive),95.5 µM (inactive),35.2 µM (inactive),37.8 µM (inactive),19.5 µM (inactive),> 100 µM (inactive),47.8 µM (inactive),> 100 µM (inactive),,> 100 µM (inactive),42 µM (inactive),58.3 µM (inactive),> 100 µM (inactive)
Nc1c(-c2ccccc2[N+](=O)[O-])nc2ccccn12,,> 100 µM (inactive),> 100 µM (inactive),> 100 µM (inactive),> 100 µM (inactive),> 100 µM (inactive),> 100 µM (inactive),> 100 µM (inactive),,> 100 µM (inactive),> 100 µM (inactive),> 100 µM (inactive),> 100 µM (inactive),> 100 µM (inactive),> 100 µM (inactive),> 100 µM (inactive),> 100 µM (inactive),> 100 µM (inactive)
CC1CCN(c2cc(-c3cc4ccccc4o3)oc(=O)c2C#N)CC1,> 100 µM (inactive),> 100 µM (inactive),> 100 µM (inactive),> 100 µM (inactive),,> 100 µM (inactive),> 100 µM (inactive),> 100 µM (inactive),,,> 100 µM (inactive),68.9 µM (inactive),> 100 µM (inactive),> 100 µM (inactive),> 100 µM (inactive),> 100 µM (inactive),> 100 µM (inactive),
N/C(=N/O)N/N=C\c1cc(Cl)cc(Cl)c1O,1.13 µM (inactive),0.193 µM (active),6.71 µM (inactive),2.31 µM (inactive),0.615 µM (active),,4.86 µM (inactive),1.54 µM (inactive),3.47 µM (inactive),5.41 µM (inactive),1.4 µM (inactive),0.791 µM (active),14.1 µM (inactive),9.62 µM (inactive),3.97 µM (inactive),4.25 µM (inactive),,4.91 µM (inactive)
O=[N+]([O-])c1cc(C(F)(F)F)cc2c1SC1=Nc3ccccc3CN12,> 100 µM (inactive),> 100 µM (inactive),> 100 µM (inactive),> 100 µM (inactive),> 100 µM (inactive),,> 100 µM (inactive),> 100 µM (inactive),> 100 µM (inactive),> 100 µM (inactive),> 100 µM (inactive),> 100 µM (inactive),> 100 µM (inactive),> 100 µM (inactive),> 100 µM (inactive),> 100 µM (inactive),,> 100 µM (inactive)
CC(=O)Nc1ccc(C(=O)N2N=C(C)/C(=C/c3cccc(O)c3)C2=O)cc1,> 100 µM (inactive),> 100 µM (inactive),> 100 µM (inactive),> 100 µM (inactive),> 100 µM (inactive),> 100 µM (inactive),> 100 µM (inactive),> 100 µM (inactive),> 100 µM (inactive),> 100 µM (inactive),> 100 µM (inactive),> 100 µM (inactive),> 100 µM (inactive),> 100 µM (inactive),> 100 µM (inactive),> 100 µM (inactive),,

# From ChEMBL document CHEMBL1201862, “PubChem BioAssay data set” (2004)
